From ChEMBL document CHEMBL1151331, “New cyclic peptides from the ascidian Lissoclinum patella” (J Nat Prod, 1998)

Columns and labels:
[1] = Cytotoxicity against human multi drug-resistant CEM/VBL100 cells in presence of vinblastine; format: functional, cell-based
[2] = Cytotoxicity against human multi drug-resistant CEM/VBL100 cells; format: functional, cell-based

SMILES | IC50 [1] [nM] | IC50 [2] [nM]
CC[C@H](C)[C@@H]1NC(=O)c2csc(n2)[C@@H](C(C)C)NC(=O)[C@H]2N=C(O[C@@H]2C)[C@H]([C@@H](C)CC)NC(=O)c2csc(n2)[C@@H](C(C)C)NC(=O)[C@@H]2COC1=N2 [PATELLAMIDE A] | 90 | –
CC[C@H](C)[C@@H]1NC(=O)c2csc(n2)[C@@H](C)NC(=O)[C@H]2N=C(O[C@@H]2C)[C@H](CC(C)C)NC(=O)c2csc(n2)[C@@H](Cc2ccccc2)NC(=O)[C@H]2N=C1O[C@@H]2C [PATELLAMIDE B] | 12 | –
CC[C@H](C)[C@@H]1NC(=O)c2csc(n2)[C@@H](C)NC(=O)[C@H]2N=C(O[C@@H]2C)[C@H](C(C)C)NC(=O)c2csc(n2)[C@@H](Cc2ccccc2)NC(=O)[C@H]2N=C1O[C@@H]2C [PATELLAMIDE C] | 12 | –
CC[C@H](C)[C@@H]1NC(=O)c2csc(n2)[C@@H](Cc2ccccc2)NC(=O)[C@H]2N=C(O[C@@H]2C)[C@H](CC(C)C)NC(=O)c2csc(n2)[C@@H](C)NC(=O)[C@H]([C@H](C)O)NC1=O [PATELLAMIDE G] | 60 | –
CC(C)C[C@H]1NC(=O)[C@H]([C@H](C)O)NC(=O)[C@H]2CSSC[C@@H](NC(=O)c3csc1n3)C(=O)N[C@@H]([C@H](C)O)C(=O)N[C@H](Cc1ccccc1)c1nc(cs1)C(=O)N2 [ULITHIACYCLAMIDE E] | 112 | –
CC(C)C[C@H]1NC(=O)[C@H]([C@H](C)O)NC(=O)[C@H]2CSSC[C@@H](NC(=O)c3csc1n3)C1=N[C@H](C(=O)N[C@H](Cc3ccccc3)c3nc(cs3)C(=O)N2)[C@@H](C)O1 [ULITHIACYCLAMIDE F] | 44 | –
CC(C)C[C@H]1NC(=O)[C@H]2N=C(O[C@@H]2C)[C@H]2CSSC[C@@H](NC(=O)c3csc1n3)C(=O)N[C@@H]([C@H](C)O)C(=O)N[C@H](Cc1ccccc1)c1nc(cs1)C(=O)N2 [ULITHIACYCLAMIDE G] | 90 | –
CC[C@]1(O)C[C@@H]2CN(CCc3c([nH]c4ccccc34)[C@@](C(=O)OC)(c3cc4c(cc3OC)N(C)[C@H]3[C@@](O)(C(=O)OC)[C@H](OC(C)=O)[C@]5(CC)C=CCN6CC[C@]43[C@@H]65)C2)C1 [VINBLASTINE] | – | 90
